# Assay results reported in PubChem BioAssay (NCI).
#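 48-hour exposure; five concentrations; linearly interpolated endpoints. At the GI50, growth is halved. TGI marks complete inhibition of growth.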
# How the values were obtained:
# Test in all cases: NCI-60 cell line screen, 48 h
# SF-295 CNS = tested on: SF-295 CNS
# SN12C renal = tested on: SN12C renal
# KM12 colon = tested on: KM12 colon
# A549 NSCLC = tested on: A549 NSCLC
# DLD-1 colon = tested on: DLD-1 colon
# DMS 273 small cell lung = tested on: DMS 273 small cell lung
# RXF 393 renal = tested on: RXF 393 renal
# ACHN renal = tested on: ACHN renal
# HS 578T breast = tested on: HS 578T breast
# BT-549 breast = tested on: BT-549 breast
Structure (SMILES),TGI (SF-295 CNS),TGI (SN12C renal),TGI (KM12 colon),TGI (A549 NSCLC),TGI (DLD-1 colon) [µM],TGI (DMS 273 small cell lung) [µM],TGI (RXF 393 renal),TGI (ACHN renal),GI50 (SF-295 CNS),GI50 (SN12C renal),GI50 (KM12 colon),GI50 (A549 NSCLC),GI50 (RXF 393 renal),GI50 (ACHN renal),GI50 (HS 578T breast),TGI (HS 578T breast),GI50 (BT-549 breast),TGI (BT-549 breast)
O=C(Nc1c(-c2nc3ccccc3[nH]2)sc(=S)n1-c1ccccc1)c1ccccc1,> 100 µM,> 100 µM,> 100 µM,> 100 µM,> 100,> 100,> 100 µM,> 100 µM,–,–,–,–,–,–,–,–,–,–
Cn1c(CCC#N)nc2ccc(Br)cc2c1=O,> 100 µM,> 100 µM,> 100 µM,> 100 µM,> 100,–,> 100 µM,> 100 µM,–,–,–,–,–,–,–,–,–,–
COC(OC)c1cccc2c1C1(O)CCC3(CC21)OCCCCO3 (centres undefined),> 100 µM,> 100 µM,> 100 µM,> 100 µM,> 100,> 100,> 100 µM,> 100 µM,–,–,–,–,–,–,–,–,–,–
Cc1ccccc1C(=O)Oc1ccc(Oc2ccccc2)cc1,> 100 µM,> 100 µM,> 100 µM,> 100 µM,> 100,> 100,> 100 µM,> 100 µM,–,–,–,–,–,–,–,–,–,–
O=C(O)/C(=C/c1ccccc1[N+](=O)[O-])c1ccccc1,> 100 µM,> 100 µM,> 100 µM,> 100 µM,> 100,> 100,–,> 100 µM,–,–,–,–,–,–,–,–,–,–
CC(C)C(=O)N[C@@H](C)C(=O)N(Cc1ccc2ccccc2c1)N=O,> 100 µM,> 100 µM,–,> 100 µM,> 100,> 100,–,> 100 µM,–,–,–,–,–,–,–,–,–,–
CCCCCCCCCCCC(=O)OCC1OC(n2cc(F)c(=O)[nH]c2=O)C(N)C(OC(=O)CCCCCCCCCCC)C1O (centres undefined),> 100 µM,> 100 µM,> 100 µM,> 100 µM,–,> 100,> 100 µM,> 100 µM,–,–,–,–,–,–,–,–,–,–
CCC(Sc1nnc2c3ccccc3n(CC)c2n1)C(=O)Nc1ccccc1OC (centres undefined),> 100 µM,> 100 µM,> 100 µM,> 100 µM,–,–,> 100 µM,> 100 µM,> 100 µM,3.47 µM,91.3 µM,6.4 µM,64 µM,83.8 µM,> 100 µM,> 100 µM,> 100 µM,> 100 µM
CCCN(CCC)c1ccc(CO)c(C)c1,> 100 µM,> 100 µM,> 100 µM,> 100 µM,–,–,> 100 µM,> 100 µM,> 100 µM,79.4 µM,> 100 µM,83.3 µM,22.2 µM,81 µM,42.2 µM,> 100 µM,47.6 µM,> 100 µM
COc1cc(OC)c2c(=O)c(O)c(-c3ccc(OC)c(OC)c3)oc2c1,38.1 µM,> 100 µM,> 100 µM,> 100 µM,–,–,56.6 µM,> 100 µM,–,–,–,–,–,–,–,70.9 µM,–,> 100 µM
N=C(c1ccccc1)N(O)C1CCCCC1,> 100 µM,> 100 µM,> 100 µM,> 100 µM,> 100,> 100,> 100 µM,–,–,–,–,–,–,–,–,–,–,–
COc1ccc(C(O)CNC(=O)c2ccccc2)cc1 (centres undefined),> 100 µM,> 100 µM,> 100 µM,> 100 µM,–,–,> 100 µM,> 100 µM,–,–,–,–,–,–,–,> 100 µM,–,> 100 µM
COC(=O)CCC(=O)c1c(C)[nH]c(/C=C2\N=C(c3ccc[nH]3)C=C2OC)c1C,4.08 µM,5.38 µM,1.72 µM,10.8 µM,–,–,4.03 µM,4.18 µM,1.62 µM,1.45 µM,0.36 µM,3.08 µM,1.46 µM,0.783 µM,1.35 µM,4.07 µM,0.587 µM,2.17 µM
O=S1(=O)CCN(Cc2ccccn2)CC1,> 100 µM,> 100 µM,> 100 µM,> 100 µM,–,–,> 100 µM,> 100 µM,–,–,–,–,–,–,–,> 100 µM,–,> 100 µM
N=C(N)SCCc1cn2ccccc2n1,> 100 µM,> 100 µM,> 100 µM,> 100 µM,> 100,> 100,–,> 100 µM,–,–,–,–,–,–,–,–,–,–
[Cu+2].[O-]c1ccc2ccccc2c1N=Nc1ccccc1.[O-]c1ccc2ccccc2c1N=Nc1ccccc1,> 100 µM,> 100 µM,> 100 µM,> 100 µM,–,–,> 100 µM,> 100 µM,> 100 µM,–,> 100 µM,–,–,–,–,> 100 µM,–,> 100 µM
O=C(OCCOCBr)c1ccccc1,> 100 µM,> 100 µM,> 100 µM,> 100 µM,> 100,> 100,–,> 100 µM,–,–,–,–,–,–,–,–,–,–
COc1ccc(O)c(C(=O)c2ccc(C(=O)O[C@@H]3CCCNC[C@H]3NC(=O)c3ccncc3)cc2)c1F,> 25 µM,> 25 µM,> 25 µM,> 25 µM,–,–,0.839 µM,> 25 µM,0.77 µM,1.34 µM,0.8 µM,0.592 µM,0.162 µM,1.49 µM,0.174 µM,> 25 µM,0.212 µM,3.36 µM
CC(=O)OC1CCn2nnc(COC(=O)NC(C)C)c21 (centres undefined),> 100 µM,> 100 µM,> 100 µM,> 100 µM,> 100,–,> 100 µM,> 100 µM,–,–,–,–,–,–,–,–,–,–
CCOC(=O)CC1(O)C=CC(=O)C=C1,5.07 mg/L,4.6 mg/L,0.738 mg/L,16.4 mg/L,–,–,1.75 mg/L,4.6 mg/L,2.55 mg/L,2.46 mg/L,0.33 mg/L,4.95 mg/L,0.666 mg/L,2.43 mg/L,2.13 mg/L,15.3 mg/L,1.48 mg/L,3.67 mg/L
CC(=O)O[C@@H]1CO[C@H]2O[C@H]3[C@@H](C(C=O)=C[C@H](O)[C@@H]4C5=C(C(C)C)CC[C@]5(C)CC[C@@]34C)[C@@]2(O)C1=O,3.98 µM,0.448 µM,1.46 µM,5.57 µM,–,–,0.362 µM,0.281 µM,–,–,–,–,–,–,–,0.594 µM,–,0.353 µM
CO[C@@H]1[C@@H](OC2OC(C)C(OC3CC(C)(O)C(OC(=O)CC(C)C)C(C)O3)C(N(C)C)C2O)[C@@H](CC=O)C[C@@H](C)C(=O)/C=C/C2O[C@H]2C[C@@H](C)OC(=O)C[C@H]1OC(C)=O (some centres undefined),48.2 µM,46.2 µM,32.2 µM,> 100 µM,–,–,64.7 µM,46.8 µM,–,–,–,–,–,–,–,> 100 µM,–,40.5 µM
